Test results as given in ChEMBL document CHEMBL1201862, “PubChem BioAssay data set” (2004).
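Results reflect a 48-hour exposure of cells in 96-well plates to compound at five concentrations. The concentration for 50% growth inhibition is given as GI50.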 The source made the active and inactive calls. No stated cut-off is given here; in the data, active = GI50 up to about 1.1 µM and inactive = higher.

Legend:
Experiment in all cases: NCI-60 cell line screen, 48 h
OVCAR-5 = test system: OVCAR-5
OVCAR-3 = test system: OVCAR-3
UACC-62 = test system: UACC-62
SW-620 = test system: SW-620
COLO 205 = test system: COLO 205
SK-MEL-2 = test system: SK-MEL-2
SK-OV-3 = test system: SK-OV-3
SNB-75 = test system: SNB-75
A549 = test system: A549
SF-268 = test system: SF-268
HT-29 = test system: HT-29
KM12 = test system: KM12
K562 = test system: K562
SK-MEL-5 = test system: SK-MEL-5
A498 = test system: A498
OVCAR-4 = test system: OVCAR-4
SNB-78 = test system: SNB-78
HCT-15 = test system: HCT-15
Malme-3M = test system: Malme-3M
DLD-1 = test system: DLD-1
HL-60 = test system: HL-60
NCI-H23 = test system: NCI-H23
CCRF-CEM = test system: CCRF-CEM
RPMI-8226 = test system: RPMI-8226
HOP-92 = test system: HOP-92
HCT-116 = test system: HCT-116
OVCAR-8 = test system: OVCAR-8
SK-MEL-28 = test system: SK-MEL-28
SF-295 = test system: SF-295
SN12C = test system: SN12C
M19-MEL = test system: M19-MEL
DMS-273 = test system: DMS-273
KM-20L2 = test system: KM-20L2
U-251 = test system: U-251
LOX IMVI = test system: LOX IMVI
IGROV-1 = test system: IGROV-1
NCI-H522 = test system: NCI-H522
EKVX = test system: EKVX
HCC 2998 = test system: HCC 2998
SNB-19 = test system: SNB-19
UACC-257 = test system: UACC-257
NCI-H226 = test system: NCI-H226
SF-539 = test system: SF-539
UO-31 = test system: UO-31
XF498 = test system: XF498
MOLT-4 = test system: MOLT-4
DMS-114 = test system: DMS-114
NCI-H460 = test system: NCI-H460
RXF 393 = test system: RXF 393
NCI/ADR-RES = test system: NCI/ADR-RES
HOP-62 = test system: HOP-62
MCF7 = test system: MCF7
ACHN = test system: ACHN
Hs-578T = test system: Hs-578T
CAKI-1 = test system: CAKI-1
786-0 = test system: 786-0
BT-549 = test system: BT-549
MDA-MB-231 = test system: MDA-MB-231
T47D = test system: T47D
MDA-N = test system: MDA-N
MDA-MB-435 = test system: MDA-MB-435
SR = test system: SR
M14 = test system: M14
DU-145 = test system: DU-145
TK-10 = test system: TK-10
PC-3 = test system: PC-3

CCN(CC)CCCNc1ncc(C)c2[nH]c3ccncc3c12 was tested, and the GI50 (OVCAR-5) was 4700 nM (inactive), the GI50 (OVCAR-3) was 12200 nM (inactive) and the GI50 (UACC-62) was 8990 nM (inactive). The GI50 (SW-620) was 4710 nM (inactive), the GI50 (COLO 205) was 4130 nM (inactive) and the GI50 (SK-MEL-2) was 10500 nM (inactive). The GI50 (SK-OV-3) was 5820 nM (inactive), the GI50 (SNB-75) was 12400 nM (inactive) and the GI50 (A549) was 4910 nM (inactive). The GI50 (SF-268) was 6750 nM (inactive), the GI50 (HT-29) was 4220 nM (inactive) and the GI50 (KM12) was 6180 nM (inactive). For the same molecule, the GI50 (K562) was 14800 nM (inactive), the GI50 (SK-MEL-5) was 13600 nM (inactive) and the GI50 (A498) was 17600 nM (inactive). The GI50 (OVCAR-4) was 4500 nM (inactive), the GI50 (SNB-78) was 19100 nM (inactive) and the GI50 (HCT-15) was 35100 nM. For the same molecule, the GI50 (Malme-3M) was 10300 nM (inactive), the GI50 (DLD-1) was 31000 nM (inactive) and the GI50 (HL-60) was 22000 nM (inactive). For the same molecule, the GI50 (NCI-H23) was 12700 nM (inactive), the GI50 (CCRF-CEM) was 21600 nM (inactive) and the GI50 (RPMI-8226) was 50500 nM (inactive). For the same molecule, the GI50 (HOP-92) was 6100 nM (inactive), the GI50 (HCT-116) was 6580 nM (inactive) and the GI50 (OVCAR-8) was 7290 nM (inactive). The GI50 (SK-MEL-28) was 12900 nM (inactive), the GI50 (SF-295) was 11200 nM (inactive) and the GI50 (SN12C) was 4880 nM (inactive). The GI50 (M19-MEL) was 11500 nM (inactive), the GI50 (DMS-273) was 7260 nM (inactive) and the GI50 (KM-20L2) was 6240 nM (inactive). For the same molecule, the GI50 (U-251) was 7210 nM (inactive), the GI50 (LOX IMVI) was 3640 nM (inactive) and the GI50 (IGROV-1) was 5370 nM (inactive). The GI50 (NCI-H522) was 7740 nM (inactive), the GI50 (EKVX) was 16100 nM (inactive) and the GI50 (HCC 2998) was 8610 nM (inactive). For the same molecule, the GI50 (SNB-19) was 15100 nM (inactive), the GI50 (UACC-257) was 12500 nM (inactive) and the GI50 (NCI-H226) was 5690 nM (inactive). The GI50 (SF-539) was 6500 nM (inactive), the GI50 (UO-31) was 28100 nM (inactive) and the GI50 (XF498) was 11400 nM (inactive). The GI50 (MOLT-4) was 2650 nM (inactive), the GI50 (DMS-114) was 7800 nM (inactive) and the GI50 (NCI-H460) was 3330 nM (inactive). For the same molecule, the GI50 (RXF 393) was 6610 nM (inactive), the GI50 (NCI/ADR-RES) was > 100000 nM (inactive) and the GI50 (HOP-62) was 18600 nM (inactive). For the same molecule, the GI50 (MCF7) was 3310 nM (inactive).

CCC(C)C(N)C(=O)N/N=C\c1c2c(nc3ccccc13)-c1cc3c(c(=O)n1C2)COC(=O)[C@]3(O)CC (stereo partly specified) was tested, and the GI50 (OVCAR-5) was 1520 nM (inactive), the GI50 (OVCAR-3) was 879 nM (active) and the GI50 (UACC-62) was < 10 nM (active). For the same molecule, the GI50 (SW-620) was 127 nM (active), the GI50 (ACHN) was < 11.7 nM (active) and the GI50 (COLO 205) was 2950 nM (inactive). For the same molecule, the GI50 (SK-MEL-2) was 1080 nM (active), the GI50 (SK-OV-3) was 52.8 nM (active) and the GI50 (SNB-75) was 25.6 nM (active). The GI50 (Hs-578T) was 1820 nM (inactive), the GI50 (A549) was 173 nM (active) and the GI50 (SF-268) was < 10 nM (active). The GI50 (HT-29) was 690 nM (active), the GI50 (KM12) was 925 nM (active) and the GI50 (K562) was 63 nM (active). The GI50 (SK-MEL-5) was 59.4 nM (active), the GI50 (A498) was 205 nM (active) and the GI50 (OVCAR-4) was 1430 nM (inactive). For the same molecule, the GI50 (HCT-15) was 356 nM, the GI50 (Malme-3M) was 438 nM (active) and the GI50 (CAKI-1) was 39.7 nM (active). For the same molecule, the GI50 (786-0) was 36.1 nM (active), the GI50 (HL-60) was 16.4 nM (active) and the GI50 (BT-549) was 174 nM (active). For the same molecule, the GI50 (MDA-MB-231) was 2370 nM (inactive), the GI50 (T47D) was < 10 nM (active) and the GI50 (NCI-H23) was 11.2 nM (active). The GI50 (CCRF-CEM) was < 10 nM (active), the GI50 (RPMI-8226) was 142 nM (active) and the GI50 (HOP-92) was 80.3 nM (active). For the same molecule, the GI50 (HCT-116) was 53.6 nM (active), the GI50 (MDA-N) was 460 nM (active) and the GI50 (OVCAR-8) was 45.3 nM (active). For the same molecule, the GI50 (SK-MEL-28) was 259 nM (active), the GI50 (MDA-MB-435) was 468 nM (active) and the GI50 (SF-295) was 43 nM (active). For the same molecule, the GI50 (SN12C) was 15.5 nM (active), the GI50 (U-251) was < 10 nM (active) and the GI50 (LOX IMVI) was 13.2 nM (active). The GI50 (IGROV-1) was 832 nM (active), the GI50 (NCI-H522) was < 48 nM (active) and the GI50 (EKVX) was 1890 nM (inactive). For the same molecule, the GI50 (HCC 2998) was 360 nM (active), the GI50 (SNB-19) was < 10 nM (active) and the GI50 (UACC-257) was 467 nM (active). For the same molecule, the GI50 (NCI-H226) was 59.8 nM (active), the GI50 (SF-539) was < 10 nM (active) and the GI50 (UO-31) was 120 nM (active). For the same molecule, the GI50 (SR) was < 10 nM (active), the GI50 (M14) was 39 nM (active) and the GI50 (DU-145) was 15.8 nM (active). The GI50 (MOLT-4) was < 10 nM (active), the GI50 (NCI-H460) was < 13.4 nM (active) and the GI50 (RXF 393) was < 28.4 nM (active). The GI50 (NCI/ADR-RES) was 232 nM (active), the GI50 (TK-10) was 4020 nM (inactive) and the GI50 (HOP-62) was 11.3 nM (active). The GI50 (PC-3) was 387 nM (active) and the GI50 (MCF7) was < 10 nM (active).
